The test system of one data set is rgRSV224 virus. The experiment in a line: Antiviral activity: rgRSV224 (GFP) replication in HeLa cells. The conditions noted are these: human respiratory syncytial virus, 72 h, read-out: RSV HELA EC50.
Another data set is described as follows: in vitro. The conditions noted are these: human.

Procedure for in vitro: The wells contain 0.05% DMSO per volume. Cells were incubated at 37° C. in a 5% CO2 atmosphere. […] In parallel, compounds were incubated for three days in a set of white 384-well microtiter plates (Corning) and the cytotoxicity of compounds in HeLa cells was determined by measuring the ATP content of the cells using the ATPlite kit (Perkin Elmer, Zaventem, Belgium) according to the manufacturer's instructions. The CC50 was defined as the 50% concentration for cytotoxicity.
Procedure for rgRSV224 virus: Black 384-well clear-bottom microtiter plates (Corning, Amsterdam, The Netherlands) were filled via acoustic drop ejection using the echo liquid handler (Labcyte, Sunnyvale, Calif.). 200 nL of compound stock solutions (100% DMSO) were transferred to the assay plates. 9 serial 4-fold dilutions of compound were made, creating per quadrant the same compound concentration. The assay was initiated by adding 10 μL of culture medium to each well (RPMI medium without phenol red, 10% FBS-heat inactivated, 0.04% gentamycin (50 mg/mL). All addition steps are done by using a multidrop dispenser (Thermo Scientific, Erembodegem, Belgium). Next, rgRSV224 virus (MOI=1) diluted in culture medium was added to the plates. rgRSV224 virus is an engineered virus that includes an additional GFP gene (Hallak L K, Spillmann D, Collins P L, Peeples M E. Glycosaminoglycan sulfation requirements for respiratory syncytial virus infection; Journal of virology (2000), 74(22), 10508-13) and was in-licensed from the NIH (Bethesda, Md., USA). Finally, 20 μL of a HeLa cell suspension (3,000 cells/well) were plated. Medium, virus- and mock-infected controls were included in each test. The wells contain 0.05% DMSO per volume. Cells were incubated at 37° C. in a 5% CO2 atmosphere. Three days post-virus exposure, viral replication was quantified by measuring GFP expression in the cells by an in house developed MSM laser microscope (Tibotec, Beerse, Belgium). The EC50 was defined as the 50% inhibitory concentration for GFP expression. In parallel, compounds were incubated for three days in a set of white 384-well microtiter plates (Corning) and the cytotoxicity of compounds in HeLa cells was determined by measuring the ATP content of the cells using the ATPlite kit (Perkin Elmer, Zaventem, Belgium) according to the manufacturer's instructions. The CC50 was defined as the 50% concentration for cytotoxicity.

In the case of `C[C@@H]1c2ccccc2CCN1C(=O)c1cc(C2CC2)n2cc(-c3ccc(N4CC[C@H](C(=O)O)C4)cc3F)nc2n1` [Compound 27, (3S)-1-(4-{5-Cyclopropyl-7-[(1R)-1-methyl-1,2,3,4-tetrahydroisoquinoline-2-carbonyl]imidazo[1,2-a]pyrimidin-2-yl}-3-fluorophenyl)pyrrolidine-3-carboxylic Acid], in the data set on rgRSV224 virus, the EC50 worked out at 0.159 µM. Further, in “in vitro”, the CC50 at 3 days is 40.4 µM.
